Entries after “also recorded” stand apart in the source; their conditions may differ.
Assays:
[1] = target: T1, wild type PPAR gamma (cdk5-mediated phosphorylation) (Mus musculus, UniProt P37238); test: TNF-α-induced phosphorylation of PPAR gamma in 3T3-L1 adipocytes expressing wild type PPAR gamma; assay type: cell-based; conditions: combined with rosiglitazone, FIG. 5A
T1 construct: expressed in transfected cells; host or cells: 3T3-L1 adipocytes
T1 sequence (P37238 1-505): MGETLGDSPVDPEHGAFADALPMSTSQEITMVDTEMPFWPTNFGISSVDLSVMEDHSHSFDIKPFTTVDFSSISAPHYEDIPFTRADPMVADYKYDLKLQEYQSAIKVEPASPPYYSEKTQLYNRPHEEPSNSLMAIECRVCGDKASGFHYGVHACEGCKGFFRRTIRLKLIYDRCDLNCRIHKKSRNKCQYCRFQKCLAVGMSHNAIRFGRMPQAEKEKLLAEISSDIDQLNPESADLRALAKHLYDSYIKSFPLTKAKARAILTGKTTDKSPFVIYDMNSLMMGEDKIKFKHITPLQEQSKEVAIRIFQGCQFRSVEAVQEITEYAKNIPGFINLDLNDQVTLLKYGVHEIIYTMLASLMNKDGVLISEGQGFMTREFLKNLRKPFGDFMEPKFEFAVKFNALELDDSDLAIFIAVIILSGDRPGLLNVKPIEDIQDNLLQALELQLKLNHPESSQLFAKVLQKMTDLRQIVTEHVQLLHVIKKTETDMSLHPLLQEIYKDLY
Protocol: HEK-293 cells expressing CDK5 or PPAR gamma were collected after transfection. Total cell lysates were incubated with FLAG M2 agarose (Sigma) at 4° C. Immunoprecipitates or total cell lysates were analyzed with anti-CDK substrate, FLAG or HA (Roche) antibodies. Differentiated 3T3-L1 adipocytes were treated with TNF-α (50 ng/ml), IL-6 (50 ng/ml), IL-10 (50 ng/ml) or FFAs (400 μM palmitic acid and oleic acid mixtures) for the indicated times, and cell lysates were analyzed with phospho-specific or PPAR gamma antibodies. 3T3-L1 adipocytes were pre-treated with various PPAR gamma ligands, and incubated with TNF-α. For tissue lysates, WAT from mice was homogenized in RIPA buffer (50 mM Tris pH7.5, 150 mM NaCl, 1% NP-40, 0.5% sodium deoxycholate, 0.1% SDS with protease and phosphatase inhibitors). […] Total tissue lysates were analyzed with anti-PPAR gamma, phospho-CDK5 (Y15), CDK5 and p35 antibodies (Santa Cruz).

[2] = target: T2, cdk5-mediated phosphorylation of PPAR gamma (serine 273) (Mus musculus, UniProt P37238); test: In vitro CDK5 kinase assay with cdk5/p35 and PPAR gamma as substrate; assay type: biochemical, murine; conditions: FIG. 5B, FIG. 6
T2 construct: FLAG (N); made in house
T2 sequence (P37238 1-505): T1 sequence (P37238 1-505)
Protocol: Kinase assays were performed using an active cdk5/p35 protein and recombinant PPAR gamma protein as a substrate in kinase buffer in the presence of ATP. The reaction was stopped by adding sample buffer. Samples were then subjected to SDS-PAGE, and detected by CDK substrate antibody. In particular, active cdk5/p35, cdk1/cdc2, cdk2/cyclin A, cdk2/cyclin E or cdk4/cyclin D1 kinases were purchased from Millipore or Cell Signaling Technology. In vitro CDK kinase assay was performed according to the manufacturer's instructions (Cell Signaling Technology). […] Positive control for assay, purified histone H1 (Millipore) or Rb (Cell Signaling Technology) were used. Several PPAR gamma ligands were pre-incubated with substrates for 30 min, and the assay was performed. Phosphorylation of substrates after SDS-PAGE was analyzed with anti-CDK substrate antibody (Cell Signaling Technology).

mice [3] = test: Whole body oxygen consumption (CLAMS) in treated mice; assay type: in vivo; conditions: 10 mg/kg for 10 days
[4] = target: T3, cdk5-mediated phosphorylation of PPAR gamma in adipose tissue (Mus musculus, UniProt P37238); test: Phosphorylation of PPAR gamma in adipose tissue (WAT) of treated high-fat fed mice; assay type: in vivo; conditions: 10 mg/kg for 7 days, FIG. 9D
T3 construct: For tissue lysates, WAT from mice was homogenized in RIPA buffer; from tissue; host or cells: white adipose tissue of C57BL/6J mice on high fat diet
T3 sequence (P37238 1-505): T1 sequence (P37238 1-505)
Protocol: For tissue lysates, WAT from mice was homogenized in RIPA buffer (50 mM Tris pH7.5, 150 mM NaCl, 1% NP-40, 0.5% sodium deoxycholate, 0.1% SDS with protease and phosphatase inhibitors). […] Total tissue lysates were analyzed with anti-PPAR gamma, phospho-CDK5 (Y15), CDK5 and p35 antibodies (Santa Cruz). Phosphorylation of PPAR gamma on Ser112 or Ser273 was detected by phospho-specific antibodies (Ser112, Millipore, MAB3632).
4 to 5-week old male C57BL/6J mice were obtained from the Jackson Laboratory.

[5] = system: PPAR gamma-null fibroblasts expressing WT PPAR gamma; test: Microarray analysis of differentiated PPAR gamma-null fibroblasts expressing wild type PPAR gamma; assay type: cell-based, mouse; conditions: 1 μM, 24 hours; FIG. 5F
Text: To create refined gene sets regulated by cdk5 phosphorylation of PPAR gamma, p-value as well as fold-change of gene expression in WT versus S273A mutant cells was first calculated, and—log p-value versus log2 fold-change was plotted.

[6] = target: T4, PPAR gamma (PPAR transcriptional response element) (Mus musculus, UniProt P37238); test: Reporter gene assay, PPAR-derived reporter gene in HEK-293 cells; assay type: cell-based
T4 construct: expressed in transfected cells; host or cells: HEK-293
T4 sequence (P37238 1-505): T1 sequence (P37238 1-505)
T4 sequence (P19793 1-462 partner): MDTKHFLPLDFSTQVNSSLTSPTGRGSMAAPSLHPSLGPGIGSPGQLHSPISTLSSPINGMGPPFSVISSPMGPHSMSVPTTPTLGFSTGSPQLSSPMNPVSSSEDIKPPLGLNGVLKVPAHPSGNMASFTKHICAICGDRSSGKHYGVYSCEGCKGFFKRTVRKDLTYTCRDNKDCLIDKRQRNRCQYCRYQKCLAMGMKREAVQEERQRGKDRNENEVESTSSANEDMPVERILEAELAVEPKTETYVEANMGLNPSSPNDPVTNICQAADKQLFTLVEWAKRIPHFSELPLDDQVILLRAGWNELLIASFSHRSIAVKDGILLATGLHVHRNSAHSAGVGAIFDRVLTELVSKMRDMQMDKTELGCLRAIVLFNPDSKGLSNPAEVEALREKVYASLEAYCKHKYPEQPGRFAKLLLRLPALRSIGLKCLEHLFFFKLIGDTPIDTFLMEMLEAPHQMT
Protocol: In some examples, HEK-293 cells were seeded in 12-well plates at 1.5×10^5 cells/well. HEK-293 cells were transfected with pDR-1 (3×, based on the UCP1 PPAR gamma recognition site)-luciferase reporter plasmid, PPAR gamma, RXRa and pRL-renillin using Lipofectamine 2000 (Invitrogen). […] The cells were harvested and reporter gene assays were carried out using the Dual-Luciferase kit (Promega). Luciferase activity was normalized to renillia activity.

adipogenesis = conditions: cited from earlier work
[7] = target: T5, PPAR gamma (TNF-α-mediated phosphorylation) (Mus musculus, UniProt P37238); test: TNF-α-induced phosphorylation of PPAR gamma in HEK-293 cells; assay type: cell-based; conditions: 30 nM; FIG. 5E
T5 construct: expressed in transfected cells; host or cells: HEK-293
T5 sequence (P37238 1-505): T1 sequence (P37238 1-505)
Protocol: HEK-293 cells expressing CDK5 or PPAR gamma were collected after transfection. Total cell lysates were incubated with FLAG M2 agarose (Sigma) at 4° C. Immunoprecipitates or total cell lysates were analyzed with anti-CDK substrate, FLAG or HA (Roche) antibodies. Differentiated 3T3-L1 adipocytes were treated with TNF-α (50 ng/ml), IL-6 (50 ng/ml), IL-10 (50 ng/ml) or FFAs (400 μM palmitic acid and oleic acid mixtures) for the indicated times, and cell lysates were analyzed with phospho-specific or PPAR gamma antibodies. 3T3-L1 adipocytes were pre-treated with various PPAR gamma ligands, and incubated with TNF-α. […] Phosphorylation of PPAR gamma on Ser112 or Ser273 was detected by phospho-specific antibodies (Ser112, Millipore, MAB3632).

mice [8] = conditions: Acton et al. 2005; cited from earlier work
[9] = target: T6, cdk5 (Rb protein as substrate) (Homo sapiens, UniProt Q00535); test: In vitro CDK5 kinase assay with Rb as substrate; assay type: biochemical; conditions: selectivity control
T6 construct: purchased Millipore or Cell Signaling Technology
Protocol: Kinase assays were performed using an active cdk5/p35 protein and recombinant PPAR gamma protein as a substrate in kinase buffer in the presence of ATP. The reaction was stopped by adding sample buffer. Samples were then subjected to SDS-PAGE, and detected by CDK substrate antibody. In particular, active cdk5/p35, cdk1/cdc2, cdk2/cyclin A, cdk2/cyclin E or cdk4/cyclin D1 kinases were purchased from Millipore or Cell Signaling Technology. In vitro CDK kinase assay was performed according to the manufacturer's instructions (Cell Signaling Technology). Briefly, 1 μg of immuno-purified WT or S273A mutant of PPAR gamma were incubated with active CDK kinase in kinase assay buffer (25 mM Tris-HCl pH 7.5, 5 mM beta-glycerophosphate, 2 mM dithiothreitol (DTT), 0.1 mM Na3VO4, 10 mM MgCl2) containing 20 μM ATP for 15 min at 30° C. Positive control for assay, purified histone H1 (Millipore) or Rb (Cell Signaling Technology) were used. Several PPAR gamma ligands were pre-incubated with substrates for 30 min, and the assay was performed. Phosphorylation of substrates after SDS-PAGE was analyzed with anti-CDK substrate antibody (Cell Signaling Technology).

high-fat fed mice = test: Glucose tolerance, fasting insulin and body weight in high-fat fed mice; conditions: 10 mg/kg for 7 days
Protocol: 4 to 5-week old male C57BL/6J mice were obtained from the Jackson Laboratory. Mice were fed a regular diet (10% kcal fat, D12450B, Research Diets Inc.) or a high fat diet (60% kcal fat, D12492, Research Diets Inc.) as indicated time periods. […] Glucose was measured in tail vain blood at intervals after glucose injection using a Truetrack glucometer. Serum insulin concentrations were determined by ELISA (Crystal Chem).

T6 sequence (Q00535 whole entry, species assumed): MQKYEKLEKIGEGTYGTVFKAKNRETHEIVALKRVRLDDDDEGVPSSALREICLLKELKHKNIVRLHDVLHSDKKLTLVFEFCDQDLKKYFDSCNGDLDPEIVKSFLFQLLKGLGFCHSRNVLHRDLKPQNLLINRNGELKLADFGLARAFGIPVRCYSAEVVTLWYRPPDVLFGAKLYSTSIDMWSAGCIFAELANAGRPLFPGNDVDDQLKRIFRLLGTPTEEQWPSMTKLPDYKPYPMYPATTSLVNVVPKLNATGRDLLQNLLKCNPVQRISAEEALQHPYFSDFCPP
T6 sequence (Q15078 whole entry partner, species assumed): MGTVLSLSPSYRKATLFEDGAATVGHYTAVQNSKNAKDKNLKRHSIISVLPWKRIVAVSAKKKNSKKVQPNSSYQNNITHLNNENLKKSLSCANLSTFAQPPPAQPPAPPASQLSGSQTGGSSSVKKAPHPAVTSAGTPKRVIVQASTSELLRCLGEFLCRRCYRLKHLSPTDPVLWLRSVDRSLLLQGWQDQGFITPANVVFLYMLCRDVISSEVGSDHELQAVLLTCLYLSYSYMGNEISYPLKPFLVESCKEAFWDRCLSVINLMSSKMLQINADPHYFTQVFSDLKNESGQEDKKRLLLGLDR

In the case of O=C(Nc1ccccc1)c1cc([N+](=O)[O-])ccc1Cl [GW 9662], the “effect of antagonist on rosiglitazone inhibition of PPAR gamma phosphorylation” value [1] is reported as “completely blocked this effect of rosiglitazone”.
In the case of COc1ccc(C(=O)n2c(C)c(Cc3cccc(O[C@@H](C)C(=O)O)c3)c3cc(OC(F)(F)F)ccc32)cc1 [MRL24], the “blocking of cdk5-mediated phosphorylation of PPAR gamma” value [2] is reported as “very effective at blocking the cdk5-mediated phosphorylation of PPAR gamma”, the “whole body oxygen consumption” value (mice [3]) is reported as “selectively increase whole body oxygen consumption in vivo” and the “cdk5-mediated phosphorylation of PPAR gamma in adipose tissue” value [4] is reported as “reduced the cdk5-mediated phosphorylation of PPAR gamma in the adipose tissue of every mouse”. For the same compound, the “expression of gene cluster "c" (genes increased by the cdk5 site mutation)” value [5] was “corresponded remarkably well to the gene set induced by the mutation in the cdk5 site of PPAR gamma”, the “expression of gene group "a" (genes activated by cdk5 phosphorylation of PPAR gamma)” value [5] was “suppressed” and the “agonist activity on PPAR gamma at 30 nM” value ([6]; 30 nM, same cells as phosphorylation test) was “essentially undetectable agonist activity”. For the same compound, the “agonist activity on a PPAR transcriptional response element” value ([6]; compared to rosiglitazone) was “very weak agonist activity; also recorded: only a small fraction of the agonist activity of rosiglitazone”, the “ability to promote adipogenesis” value (adipogenesis) was “virtually no ability to promote adipogenesis” and the “block of TNF-α-mediated phosphorylation of PPAR gamma” value [7] was “blocked the TNF-α-mediated phosphorylation of PPAR gamma essentially completely”. The anti-diabetic activity (mice [8]) was “excellent anti-diabetic activity in mice”, the “inhibition of cdk5 phosphorylation of Rb” value [9] was “retained full ability to phosphorylate Rb” and the fasting insulin levels (high-fat fed mice) was “reduced fasting insulin levels”. The glucose tolerance (high-fat fed mice) was “dramatically improved glucose tolerance”.
With CN(CCOc1ccc(CC2SC(=O)NC2=O)cc1)c1ccccn1 (stereo not drawn) [rosiglitazone] the body weight (high-fat fed mice) was “without inducing changes in body weight”.
